Measurements as given in patent US20050008653A1, “Stabilizing molecule” (Medical Research Council, priority 2001, published 2005).
Several values for one entry are separate records, joined by “and”; a condition that tells them apart may be missing. Equal entries are not always repeated. Where two headings read alike, the source gives them in different places.

How the values were obtained:
[1] = biological target: T1, p53 core domain mutant I195T (Homo sapiens, UniProt P04637, I195T); assay: Restoration of sequence-specific DNA binding (fluorescein-labelled Gadd45 DNA, anisotropy); assay type: biochemical; conditions: CDB3 100 μM
T1 construct: human p53 core domain wild-type and mutants (residues 94-312); made in house

[2] = biological target: T2, wild-type p53 core domain (Homo sapiens, UniProt P04637); assay: DNA binding in presence of peptide (Gadd45 DNA); assay type: biochemical
T2 construct: human p53 core domain wild-type and mutants (residues 94-312); made in house

[3] = biological target: T1, p53 core domain mutant I195T; assay: Binding to random double stranded DNA sequence in presence of peptide; assay type: biochemical
Description: To confirm that the restoration of DNA binding is sequence-specific, we repeated the experiments with the random double stranded DNA sequence fluorescein-[…] […].

[4] = test system: tumour cells; assay: FACS analysis of cell cycle distribution and cell death (subG1); assay type: cell-based; conditions: 10 μg/mL, 24 h
[5] = test system: H1299 cells containing p53 R175H; assay: Distribution of FL-CDB3 in cells (fluorescence microscopy); assay type: cell-based; conditions: without Lipofectamine
Experimental: The results can be seen in FIG. 8.
Top left: H1299 cells containing p53 R 175H. […] The peptide remained visible for at least 48 h.

[6] = biological target: T3, p53 core domain (Homo sapiens, UniProt P04637); assay: Refolding of urea-denatured p53 core domain by fluorescence anisotropy; assay type: biochemical; design: human p53 core domain wild-type and mutants (residues 94-312); made in house; conditions: 3 M urea, 10° C.
Description: Upon mixing the peptide with p53 core domain a rapid binding event takes place, leading to the formation of a FL-CDB3-p53 core domain complex. […] There is an increase in the anisotropy over time, as the peptide induced protein refolding by mass action (FIG. 6d). […] Urea weakened the binding to the native structure so that the stabilising effects in 3 M urea are not as pronounced as they would be in water alone.

[7] = biological target: T2, wild-type p53 core domain; assay: Differential scanning calorimetry (apparent Tm); assay type: binding; conditions: HEPES buffer pH 7.2, 1 mM DTT; 40.1° C. without peptide
Experimental: Differential Scanning Calorimetry may also be used to detect and/or quantify binding. Differential Scanning Calorimetry may be performed using methods known to those skilled in the art. In a suitable example, DSC experiments are performed using a Microcal VP-DSC microcalorimeter (Microcal, Amherst, Mass.). Temperatures from 5 to 95° C. are scanned at a rate of 60 deg/h, using a HEPES buffer pH 7.2, 1 mM DTT, which also served for baseline measurements. […] A pressure of 25 psi […] is applied to the cell. The data is analysed using Origin software (Microcal).
The thermal denaturation of p53 core domain is irreversible, and thus only an apparent melting temperature (Tm) can be determined (Bullock et al., 1997), but increase in stability can be correlated with increase in the apparent Tm. All DSC measurements are carried out in HEPES buffer pH 7.2, 1 mM DTT.

[8] = test system: H1299-His175 cells; assay: Dead cells by trypan blue exclusion; assay type: cell-based; conditions: 10 μg/mL peptide, 24 h; before treatment 5%
[9] = test system: control H1299 (p53 null) cells; conditions: 10 μg/mL peptide, 24 h; before treatment 3%
Experimental: (§1) The general methods used in the examples set forth below are described in detail in Bykov et al., Nature Med 8, 282-288 (2002) which is herein incorporated by reference.
(§2) Tumour cells were treated with 10 μg/mL of peptide and analysed the cell cycle distribution and cell death (as subG1 fraction) 24 h post treatment using FACS analysis.

[10] = test system: control Saos-2 (p53 null) cells; conditions: 10 μg/mL peptide, 24 h; before treatment 3%
Experimental: as §1, §2

[11] = test system: Saos-2-His273 cells; assay: Dead cells by trypan blue exclusion; assay type: cell-based; conditions: 10 μg/mL peptide, 24 h; before treatment 3%
[12] = test system: p53 mutant His175 in H1299 lung carcinoma cells; conditions: 24 h incubation
Experimental: as §1
Lung carcinoma cells H1299 transfected with His175 p53 mutant and parental nontransfected cells were treated with the amounts of peptide indicated below, incubated for 24 h and tested for p53, p21, and Mdm-2 protein expression. […] The treatment with peptide was performed either with or without Lipofectamine.

[13] = test system: wtp53 in colon carcinoma HCT116 cells; assay: Western blot of induced protein expression; assay type: cell-based; conditions: 24 h, 10 μg/mL FL-CDB3
[14] = test system: HCTp53-/- cells; assay: Western blot of induced protein expression; assay type: cell-based; conditions: 24 h, 10 μg/mL FL-CDB3
[15] = biological target: wild-type p53 core domain (94-312) (Homo sapiens, UniProt P04637); conditions: increasing urea concentrations
[16] = biological target: T3, p53 core domain; conditions: Gadd45 DNA 5-25 μM
[17] = test system: p53 mutant His273; conditions: 24 h incubation, 1-10 μg/mL FL-CDB3
[18] = biological target: T3, p53 core domain; assay: Anisotropy competition with fluorescein-labeled CDB3; conditions: solution measurements
[19] = biological target: T3, p53 core domain; assay: BIAcore binding of p53 core domain to immobilised biotinylated CDB3 (half saturation concentration); design: human p53 core domain wild-type and mutants (residues 94-312); made in house
Description: Surface plasmon resonance measurements may be performed using a BIAcore 2000 using methods familiar to those skilled in the art. For example, it may be equipped with a sensor chip SA (BIAcore AB, Uppsala, Sweden) both to screen the polypeptide for binding of stabilising molecule and to quantify the binding of the stabilising molecule to the polypeptide. […] Biotinylated stabilising molecules such as CDB peptides may be immobilised and the binding of the polypeptide (in this case p53) can therefore be studied.
All immobilisation as well as binding measurements may be performed at 10° C. with 50 mM HEPES, pH 7.2, 5 mM DTT, as running buffer, using a sample frequency of 1 Hz. The streptavidin surface of the chip can be activated with […] NaOH, 1 M NaCl, in three cycles of 1 min, 20 μL/min, before the immobilization of peptides. The biotinylated peptides may be dissolved to a final concentration of 1.5-4.0 mM (in buffer as above with addition of 0.13 M NaCl) and can be immobilised at a flow rate of 5 μL/min until the level of saturation is reached. In the above Example Flow cell 1 can be used as a background for the change in bulk refractive index.
The binding association is measured for 5 min at 30 μL/min, […], in the buffer described above (no salt added). […]
Surface plasmon resonance can be used to measure the CDB3-p53 core domain binding constant quantitatively. […]

[20] = biological target: p53 (Homo sapiens, UniProt P04637); assay: Stabilisation of active conformations of p53 (no method given)

**Q.** Which results are given for `CC[C@H](C)[C@H](NC(=O)[C@H](CCC(=O)O)NC(=O)[C@H](CC(=O)O)NC(=O)[C@H](CCC(=O)O)NC(=O)[C@H](CC(=O)O)NC(=O)[C@H](CCC(=O)O)NC(=O)[C@@H](N)CCCNC(=N)N)C(=O)N[C@@H](CCC(=O)O)C(=O)N[C@@H](Cc1c[nH]c2ccccc12)C(N)=O` [CDB3]?
**A.** improvement of I195T binding to Gadd45 DNA [1]: six fold; effect on DNA binding of wild-type p53 core domain [2]: did not affect DNA binding; effect on binding of I195T to random DNA sequence [3]: not improved, but rather inhibited; apoptosis [4]: induces apoptosis in tumour cells in p53-dependent manner; growth arrest [4]: no growth arrest was detected; penetration into cells [5]: able to penetrate inside the cells by itself; refolding of p53 core domain [6]: induced refolding of p53 core domain

**Q.** Which “apparent Tm of wild-type core domain in presence of peptide” value [7] does the source give for `CC[C@H](C)[C@H](NC(=O)[C@H](CCC(=O)O)NC(=O)[C@H](CC(=O)O)NC(=O)[C@H](CCC(=O)O)NC(=O)[C@H](CC(=O)O)NC(=O)[C@H](CCC(=O)O)NC(=O)[C@H](CCCNC(=N)N)NC(=O)c1ccc2c(c1)C(=O)OC21c2ccc(O)cc2Oc2cc(O)ccc21)C(=O)N[C@@H](CCC(=O)O)C(=O)N[C@@H](Cc1c[nH]c2ccccc12)C(N)=O` [FL-CDB3] here?
**A.** The value was 41.6 °C.

**Q.** What about the “dead cells after treatment” value [8] of the same compound?
**A.** Its value is 37%.

**Q.** And the “dead cells after treatment” value [9]?
**A.** The value was 11%.

**Q.** And the “dead cells after treatment” value [10]?
**A.** The value was 13%.

**Q.** And the “dead cells after treatment” value [11]?
**A.** The value was 28%.

**Q.** What about the “mutant p53 levels” value [12] of the same compound?
**A.** Its value is “remarkably increased”.

**Q.** What about the “p21 and Mdm-2 protein expression” value ([12]; 10 μg/mL FL-CDB3) of the same compound?
**A.** Its value is “restored the ability of p53 mutants His175 and His273 to activate the transcription of endogenous genes p21 and Mdm-2”.

**Q.** What about the “Mdm-2 and p21 expression” value [13] of the same compound?
**A.** The value was “activates expression of Mdm-2 and p21”.

**Q.** What about the “p21 and Mdm-2 induction” value [14] of the same compound?
**A.** Its value is “No induction of p21 nor Mdm-2”.

**Q.** And the penetration into cells [5]?
**A.** The penetration into cells was “able to penetrate inside the cells by itself”.

**Q.** What about the “dependence of binding on urea concentration” value [15] of the same compound?
**A.** The value was “binding weakened with increasing urea concentrations”.

**Q.** And the “displacement of peptide from p53 core domain by DNA” value [16]?
**A.** The value was “displaced the peptide completely”.

**Q.** What about the “p21 and Mdm-2 protein expression” value [17] of the same compound?
**A.** The value was “restored the ability of p53 mutants His175 and His273 to activate the transcription of endogenous genes p21 and Mdm-2”.

**Q.** Which “improvement of affinity compared to the unlabeled peptide” value [18] does the source give for `CC[C@H](C)[C@H](NC(=O)[C@H](CCC(=O)O)NC(=O)[C@H](CC(=O)O)NC(=O)[C@H](CCC(=O)O)NC(=O)[C@H](CC(=O)O)NC(=O)[C@H](CCC(=O)O)NC(=O)[C@H](CCCNC(=N)N)NC(=O)CCCC[C@@H]1SC[C@@H]2NC(=O)N[C@@H]21)C(=O)N[C@@H](CCC(=O)O)C(=O)N[C@@H](Cc1c[nH]c2ccccc12)C(N)=O` [biotinylated CDB3] here?
**A.** Its value is “three-fold”.

**Q.** What about the Kd ([19]; biotinylated CDB3 immobilized on SA sensor chip, read-out: concentration of p53 core domain for 50% binding) of the same compound?
**A.** The Kd was about 200 nM.

**Q.** What about the Kd ([19]; immobilized peptide, half saturation concentration by BIAcore, read-out: Kd) of the same compound?
**A.** Its Kd is 200 nM and ~200 nM.

**Q.** Which “stabilisation of active conformations of p53” value [20] does the source give for `COc1ccc(/C=C/c2nc(NCCCN(C)C)c3ccccc3n2)cc1` [CP-31398] here?
**A.** The value was “does not in fact work to stabilise active conformations of p53”.
